Patent publication US9732067B2, “Compounds and methods for activating the apoptotic arm of the unfolded protein response” (University of Kansas, priority 2012, dated 2017)
Several values for one entry are separate records, joined by “and”; a condition that tells them apart may be missing. Identical values can stand only once. Like-named read-outs stand apart in the source and are kept apart here.

Tests used:
−/− MEF KO CHOP = assay: Proliferation / cytotoxicity (ATPLite) in MEF with CHOP KO; type: cell-based; conditions: Mus musculus
Protocol: Several of the analogs derived from these changes were evaluated in secondary assays as they met the preliminary probe criteria for UPR-CHOP and UPR-XBP1 activity. Select compounds were assessed in a dose response manner for the ability to suppress proliferation in both the CHOP wild-type and CHOP knockout murine embryonic fibroblasts (−/− MEF KO CHOP)(Table 2).
It was determined whether ML291 and ML291 congeners would induce cell death (cytotoxicity as measured by ATPLite®, which measures production of ATP from living cells) in cells where these pathways are operant, but not activate them in the absence of the pathways.

[1] = Aqueous solubility in 1x PBS, pH 7.4; type: physicochemical; conditions: room temperature (23° C.)
Protocol: Solubility was measured in phosphate-buffered saline (PBS) at room temperature (23° C.). PBS by definition is 137 mM NaCl, 2.7 mM KCl, 10 mM sodium phosphate dibasic, 2 mM potassium phosphate monobasic and a pH of 7.4.

[2] = Plasma protein binding, human; type: in vitro ADME
Text: (§1) Plasma protein binding is a measure of a drug's efficiency to bind to the proteins within blood plasma. The less bound a drug is, the more efficiently it can traverse cell membranes or diffuse. Highly plasma protein bound drugs are confined to the vascular space, thereby having a relatively low volume of distribution. In contrast, drugs that remain largely unbound in plasma are generally available for distribution to other organs and tissues. ML291 was highly plasma protein bound to human plasma proteins (>99%), though it is somewhat less tightly bound to mouse plasma proteins (˜84%).

[3] = Plasma protein binding, mouse; type: in vitro ADME
Text: as §1

Plasma stability, mouse = type: in vitro ADME
Text: Plasma stability is a measure of the stability of small molecules and peptides in plasma and is an important parameter, which strongly can influence the in vivo efficacy of a test compound. Drug candidates are exposed in plasma to enzymatic processes (proteinases, esterases), and they can undergo intramolecular rearrangement or bind irreversibly (covalently) to proteins. ML291 appeared to be moderately stable in human plasma (˜84% remaining), but less so in mouse plasma (˜52% remaining).

[4] = Hepatic microsome stability, human; type: in vitro ADME
Text: (§2) The microsomal stability assay is commonly used to rank compounds according to their metabolic stability. This assay addresses the pharmacologic question of how long the parent compound will remain circulating in plasma within the body.

[5] = Hepatic microsome stability, mouse; type: in vitro ADME
Text: as §2

[6] = Toxicity towards Fa2N-4 immortalized human hepatocytes; type: cell-based; conditions: read-out: Toxicity Towards Fa2N-4 Immortalized Human Hepatocytes LC50
[7] = molecular target: T1, dopamine transporter (DAT) (Homo sapiens, UniProt Q01959); assay: Radio-ligand binding panel (Ricerca), 67 GPCRs, ion channels and transporters
T1 construct: Ricerca Biosciences LLC (Bothell, Wash.)
T1 sequence (Q01959 whole entry, species assumed): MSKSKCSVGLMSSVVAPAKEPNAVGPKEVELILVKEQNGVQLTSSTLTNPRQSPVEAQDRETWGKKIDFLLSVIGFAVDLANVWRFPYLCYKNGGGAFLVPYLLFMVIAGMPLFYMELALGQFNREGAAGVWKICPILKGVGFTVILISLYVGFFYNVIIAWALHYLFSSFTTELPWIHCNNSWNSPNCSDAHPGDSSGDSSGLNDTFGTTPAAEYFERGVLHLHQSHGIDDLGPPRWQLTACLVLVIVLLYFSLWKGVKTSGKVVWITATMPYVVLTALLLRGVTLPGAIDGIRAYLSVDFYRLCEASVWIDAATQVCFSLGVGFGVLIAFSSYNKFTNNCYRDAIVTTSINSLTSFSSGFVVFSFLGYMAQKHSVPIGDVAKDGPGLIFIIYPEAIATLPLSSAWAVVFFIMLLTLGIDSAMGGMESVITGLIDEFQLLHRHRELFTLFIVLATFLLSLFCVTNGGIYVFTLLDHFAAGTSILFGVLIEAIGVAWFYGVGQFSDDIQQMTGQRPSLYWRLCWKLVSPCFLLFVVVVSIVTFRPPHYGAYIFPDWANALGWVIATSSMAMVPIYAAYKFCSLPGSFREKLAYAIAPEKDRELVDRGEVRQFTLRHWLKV
Protocol: ML291 was submitted to Ricerca Biosciences LLC (Bothell, Wash.) to evaluate it in radio-ligand binding assays to determine activity against a panel of 67 GPCRs, ion channels and transporters at 10 μM.

A253-CHOP-luc xenografts = assay: Bioluminescent imaging of A253-CHOP-luc xenografts; type: in vivo, SCID mice; conditions: 24 hours after 10 mg/kg (IP)
[8] = Tolerability of ML291 in mice; type: in vivo
UMSCC23 = assay: Proliferation, UMSCC23; type: cell-based; conditions: Homo sapiens, 24 hours, average of three experiments
Protocol: (§3) To determine whether ML291 could reduce the proliferation of malignant cells, a panel of OSCC (UMSCC23, A253, HN6, HN12, HN30, H460/T800) and ovarian cancer (RMG-1, TOV112D, A2780 and SKOV3) cell lines, were treated with increasing doses (0.15-20 μM) of ML291 for 24 hours (FIGS. 3A and 3B).

A253 = assay: Proliferation, A253; type: cell-based; conditions: Homo sapiens, 24 hours, average of three experiments
Protocol: as §3

HN6 = assay: Proliferation, HN6; type: cell-based; conditions: HN-6, 24 hours, average of three experiments
Protocol: as §3

HN30 = assay: Proliferation, HN30; type: cell-based; conditions: 24 hours, average of three experiments
Protocol: as §3

H460/T800 = assay: Proliferation, H460/T800; type: cell-based; conditions: Homo sapiens, NCI-H460, 24 hours, average of three experiments
Protocol: as §3

SKOV3 = assay: Proliferation, SKOV3; type: cell-based; conditions: Homo sapiens, SK-OV-3, 24 hours
Protocol: as §3

[9] = Stability in PBS at room temperature; type: physicochemical; conditions: 48 hours, 23° C.
Protocol: Stability was measured under two distinct conditions with ML291: at room temperature (23° C.) in PBS (no antioxidants or other protectants and DMSO concentration below 0.1%) and with 50% acetonitrile added to account for challenges with solubility of the compound in PBS alone. Stability was determined as the loss of compound with time over a 48 hour period with a minimum of 6 time points.

OSCC = assay: Preliminary combination studies with cisplatin and taxol; type: cell-based
Protocol: To confirm the ability of ML291 to activate UPR-luciferase reporters stably transfected into UMSCC23 and A253 cells and reduce tumor burden, additional xenograft studies are performed with additional animals to permit real-time measurement of UPR activation during drug treatment (bioluminescent imaging). The data presented herein indicate that ML291 can activate the UPR in xenograft tissue at 10 mg/kg. […] Thus, mice are injected IP in the morning with 10-100 mg/kg ML291. Injection in the morning, i.e., when the lights come on in the vivarium and the mice stomachs are most likely to be full, is a technique known to enhance absorption of nitrofurans into the bloodstream (Heinrichs (2001) Behavioural Brain Res. 125:81-88). […] Upon completion of this experiment, control and ML291 treated mice (3 each) undergo complete pathological necropsy to identify gross or histological signs of organ toxicity. Once the degree to which ML291 induces the UPR and reduces xenograft burden is analyzed, additional studies are carried out with combination therapies using standard of care OSCC drugs. […] It is posited that ML291-enforced UPR in the tumor milieu potentiates conventional therapies and might enhance the effects of cisplatin, ifosfamide or taxol.

Question: Which results are given for O=C(Nc1ccc(S(=O)(=O)N2CCC(Cl)CC2)cc1)c1ccc([N+](=O)[O-])o1 [ML291, N-(4-((4-chloropiperidin-1-yl)sulfonyl)phenyl)-5-nitrofuran-2-carboxamide]?
Answer: EC50 (−/− MEF KO CHOP; Table 2, mean of replicates, EC50 and μM, read-out: Proliferation −/− MEF KO CHOP): > 20 µM; IC50 (−/− MEF KO CHOP; Table 5, MEF, ATPLite): > 20 µM; EC50 (−/− MEF KO CHOP; read-out: EC50 on −/− MEF knockout cells): > 20 µM; Aqueous Solubility in 1x PBS, pH 7.4 [1]: 3.9 μg/mL and 9.4 μM; bound to human plasma proteins [2]: > 99%; fraction unbound at 1 µM ([2]; plasma, Human, 1 μM, read-out: Plasma Protein Binding (% Bound) (converted)): 0.0025; fraction unbound at 10 µM ([2]; plasma, Human, 10 μM, read-out: Plasma Protein Binding (% Bound) (converted)): 0.0037; bound to mouse plasma proteins [3]: ~84%; fraction unbound at 1 µM ([3]; plasma, Mouse, 1 μM, read-out: Plasma Protein Binding (% Bound) (converted)): 0.155; fraction unbound at 10 µM ([3]; plasma, Mouse, 10 μM, read-out: Plasma Protein Binding (% Bound) (converted)): 0.157; remaining in mouse plasma (Plasma stability, mouse): ~52%; Plasma Stability (% Remaining at 3 hours @ 37° C.) (Plasma stability, mouse; Mouse): 52.31%; Hepatic Microsome Stability (% Remaining after 1 hour @ 37° C.) ([4]; Human): 0.49%; metabolism in human liver homogenates ([4]; within 1 hour): almost completely metabolized; Hepatic Microsome Stability (% Remaining after 1 hour @ 37° C.) ([5]; Mouse): 0.02%; metabolism in mouse liver homogenates ([5]; within 1 hour): almost completely metabolized; CC50 [6]: 11.4 µM; inhibition at 10 µM [7]: 68%; luminescence of xenografts (A253-CHOP-luc xenografts): increased luminescence; weight, physical appearance, disposition or activity versus controls ([8]; 10 mg/kg IP daily, preliminary): no differences in weight, physical appearance, disposition or activity; side effects ([8]; 10 mg/kg bi-weekly for four weeks): did not display any obvious side effects; IC50 (UMSCC23): 7.31 ± 1.68 µM; IC50 (A253): 17.2 ± 3.64 µM; IC50 (HN6): > 20 µM; IC50 (HN30): 8.95 ± 1.06 µM; IC50 (H460/T800): 18.9 ± 1.83 µM; IC50 (SKOV3): 1.59 µM; percent remaining compound in PBS with 50% acetonitrile [9]: 100%; percent remaining compound in PBS ([9]; no additives): 11.44%; effect of combination with cisplatin and taxol (OSCC): reduced IC50 values
